From US20170190671A1, “BIS(ARYL)CATECHOL DERIVATIVES AS HERBICIDES” (E I DU PONT DE NEMOURS AND COMPANY, priority 2014, published 2017)

Columns and labels:
Experiment in all cases: Test D postemergence
Type in all cases: in vivo
Conditions in all cases: scale 0 to 100
[1] = tested on: canarygrass (Phalaris minor)
Text: (§1) Seeds of plant species selected from bluegrass (annual bluegrass, Poa annua), blackgrass (Alopecurus myosuroides), canarygrass (Phalaris minor), chickweed (common chickweed, Stellaria media), cutleaf geranium (Geranium dissectum), galium (catchweed bedstraw, Galium aparine), downy bromegrass (Bromus tectorum), field poppy (Papaver rhoeas), field violet (Viola arvensis), green foxtail (Setaria viridis), deadnettle (henbit deadnettle, Lamium amplexicaule), Italian ryegrass (Lolium multiflorum), kochia (Kochia scoparia), lambsquarters (Chenopodium album), oilseed rape (Brassica napus), pigweed (Amaranthus retroflexus), chamomile (scentless chamomile, Matricaria inodora), Russian thistle (Salsola kali), speedwell (bird's-eye speedwell, Veronica persica), spring barley (Hordeum vulgare), spring wheat (Triticum aestivum), wild buckwheat (Polygonum convolvulus), wild mustard (Sinapis arvensis), wild oat (Avenafatua), wild radish (Raphanus raphanistrum), windgrass (Apera spica-venti), winter barley (Hordeum vulgare), and winter wheat (Triticum aestivum) were planted into a silt loam soil and treated preemergence with test chemicals formulated in a non-phytotoxic solvent mixture which included a surfactant.
(§2) At the same time, these species were planted in pots containing Redi-Earth® planting medium (Scotts Company, 14111 Scottslawn Road, Marysville, Ohio 43041) comprising spaghnum peat moss, vermiculite, wetting agent and starter nutrients and treated with postemergence applications of the test chemicals formulated in the same manner. Plants ranged in height from 2 to 18 cm (1- to 4-leaf stage). Treated plants and controls were maintained in a controlled growth environment for 14 to 21 days after which time all species were compared to controls and visually evaluated. Plant response ratings, summarized in Table D, are based on a scale of 0 to 100 where 0 is no effect and 100 is complete control. A dash (-) response means no test result.

[2] = tested on: lambsquarters (Chenopodium album)
Text: as §1, §2

[3] = tested on: bluegrass (annual bluegrass, Poa annua)
Text: as §1, §2

[4] = tested on: field poppy (Papaver rhoeas)
Text: as §1, §2

[5] = tested on: oilseed rape (Brassica napus)
Text: as §1, §2

[6] = tested on: pigweed (Amaranthus retroflexus)
Text: as §1, §2

[7] = tested on: deadnettle (henbit deadnettle, Lamium amplexicaule)
Text: as §1, §2

[8] = tested on: Russian thistle (Salsola kali)
Text: as §1, §2

[9] = tested on: blackgrass (Alopecurus myosuroides)
Text: as §1, §2

[10] = tested on: cutleaf geranium (Geranium dissectum)
Text: as §1, §2

kochia (Kochia scoparia) = tested on: kochia (Kochia scoparia)
Text: as §1, §2

[11] = tested on: wild buckwheat (Polygonum convolvulus)
Text: as §1, §2

[12] = tested on: green foxtail (Setaria viridis)
Text: as §1, §2

[13] = tested on: field violet (Viola arvensis)
Text: as §1, §2

[14] = tested on: wild mustard (Sinapis arvensis)
Text: as §1, §2

[15] = tested on: chamomile (scentless chamomile, Matricaria inodora)
Text: as §1, §2

[16] = tested on: spring wheat (Triticum aestivum)
Text: as §1, §2

[17] = tested on: winter barley (Hordeum vulgare)
Text: as §1, §2

[18] = tested on: winter wheat (Triticum aestivum)
Text: as §1, §2

[19] = tested on: chickweed (common chickweed, Stellaria media)
Text: as §1, §2

[20] = tested on: downy bromegrass (Bromus tectorum)
Text: as §1, §2

## Fc1cnc(Oc2c(Br)cccc2Oc2ncc(Cl)cn2)nc1 [Compound 22]
[1]; 16 g ai/ha
  Plant response rating, Canarygrass: 10
[1]; 31 g ai/ha
  Plant response rating, Canarygrass: 10
[1]; 62 g ai/ha
  Plant response rating, Canarygrass: 20
[1]; 125 g ai/ha
  Plant response rating, Canarygrass: 25
[2]; 16 g ai/ha
  Plant response rating, Lambsquarters: 50
[2]; 31 g ai/ha
  Plant response rating, Lambsquarters: 40
[2]; 62 g ai/ha
  Plant response rating, Lambsquarters: 75
[2]; 125 g ai/ha
  Plant response rating, Lambsquarters: 70
[3]; 16 g ai/ha
  Plant response rating, Bluegrass: 0
[3]; 31 g ai/ha
  Plant response rating, Bluegrass: 5
[3]; 62 g ai/ha
  Plant response rating, Bluegrass: 15
[3]; 125 g ai/ha
  Plant response rating, Bluegrass: 40
[4]; 16 g ai/ha
  Plant response rating, Field Poppy: 55
[4]; 31 g ai/ha
  Plant response rating, Field Poppy: 65
[4]; 62 g ai/ha
  Plant response rating, Field Poppy: 70
[4]; 125 g ai/ha
  Plant response rating, Field Poppy: 70
[5]; 16 g ai/ha
  Plant response rating, Oilseed Rape: 15
[5]; 31 g ai/ha
  Plant response rating, Oilseed Rape: 45
[5]; 62 g ai/ha
  Plant response rating, Oilseed Rape: 70
[5]; 125 g ai/ha
  Plant response rating, Oilseed Rape: 80
[6]; 16 g ai/ha
  Plant response rating, Pigweed: 75
[6]; 31 g ai/ha
  Plant response rating, Pigweed: 80
[6]; 62 g ai/ha
  Plant response rating, Pigweed: 75
[6]; 125 g ai/ha
  Plant response rating, Pigweed: 95
[7]; 16 g ai/ha
  Plant response rating, Deadnettle: 50
[7]; 31 g ai/ha
  Plant response rating, Deadnettle: 50
[7]; 62 g ai/ha
  Plant response rating, Deadnettle: 65
[7]; 125 g ai/ha
  Plant response rating, Deadnettle: 90
[8]; 16 g ai/ha
  Plant response rating, Russian Thistle: 0
[8]; 31 g ai/ha
  Plant response rating, Russian Thistle: 5
[8]; 62 g ai/ha
  Plant response rating, Russian Thistle: 10
[8]; 125 g ai/ha
  Plant response rating, Russian Thistle: 15
[9]; 16 g ai/ha
  Plant response rating, Blackgrass: 20
[9]; 31 g ai/ha
  Plant response rating, Blackgrass: 30
[9]; 62 g ai/ha
  Plant response rating, Blackgrass: 35
[9]; 125 g ai/ha
  Plant response rating, Blackgrass: 40
[10]; 16 g ai/ha
  Plant response rating, Geranium, Cutleaf: 45
[10]; 31 g ai/ha
  Plant response rating, Geranium, Cutleaf: 55
[10]; 62 g ai/ha
  Plant response rating, Geranium, Cutleaf: 55
[10]; 125 g ai/ha
  Plant response rating, Geranium, Cutleaf: 60
Kochia (Kochia scoparia); 16 g ai/ha
  Plant response rating, Kochia: 40
Kochia (Kochia scoparia); 31 g ai/ha
  Plant response rating, Kochia: 45
Kochia (Kochia scoparia); 62 g ai/ha
  Plant response rating, Kochia: 60
Kochia (Kochia scoparia); 125 g ai/ha
  Plant response rating, Kochia: 70
[11]; 16 g ai/ha
  Plant response rating, Buckwheat, Wild: 55
[11]; 31 g ai/ha
  Plant response rating, Buckwheat, Wild: 65
[11]; 62 g ai/ha
  Plant response rating, Buckwheat, Wild: 70
[11]; 125 g ai/ha
  Plant response rating, Buckwheat, Wild: 80
[12]; 16 g ai/ha
  Plant response rating, Foxtail, Green: 10
[12]; 31 g ai/ha
  Plant response rating, Foxtail, Green: 15
[12]; 62 g ai/ha
  Plant response rating, Foxtail, Green: 25
[12]; 125 g ai/ha
  Plant response rating, Foxtail, Green: 30
[13]; 16 g ai/ha
  Plant response rating, Field Violet: 25
[13]; 31 g ai/ha
  Plant response rating, Field Violet: 40
[13]; 62 g ai/ha
  Plant response rating, Field Violet: 70
[13]; 125 g ai/ha
  Plant response rating, Field Violet: 75
[14]; 16 g ai/ha
  Plant response rating, Mustard, Wild: 35
[14]; 31 g ai/ha
  Plant response rating, Mustard, Wild: 40
[14]; 62 g ai/ha
  Plant response rating, Mustard, Wild: 55
[14]; 125 g ai/ha
  Plant response rating, Mustard, Wild: 75
[15]; 16 g ai/ha
  Plant response rating, Chamomile: 0
[15]; 31 g ai/ha
  Plant response rating, Chamomile: 0
[15]; 62 g ai/ha
  Plant response rating, Chamomile: 0
[15]; 125 g ai/ha
  Plant response rating, Chamomile: 5
[16]; 16 g ai/ha
  Plant response rating, Wheat, Spring: 5
[16]; 31 g ai/ha
  Plant response rating, Wheat, Spring: 5
[16]; 62 g ai/ha
  Plant response rating, Wheat, Spring: 10
[16]; 125 g ai/ha
  Plant response rating, Wheat, Spring: 15
[17]; 16 g ai/ha
  Plant response rating, Barley, Winter: 5
[17]; 31 g ai/ha
  Plant response rating, Barley, Winter: 10
[17]; 62 g ai/ha
  Plant response rating, Barley, Winter: 10
[17]; 125 g ai/ha
  Plant response rating, Barley, Winter: 15
[18]; 16 g ai/ha
  Plant response rating, Wheat, Winter: 0
[18]; 31 g ai/ha
  Plant response rating, Wheat, Winter: 5
[18]; 62 g ai/ha
  Plant response rating, Wheat, Winter: 5
[18]; 125 g ai/ha
  Plant response rating, Wheat, Winter: 10
[19]; 16 g ai/ha
  Plant response rating, Chickweed: 30
[19]; 31 g ai/ha
  Plant response rating, Chickweed: 75
[19]; 62 g ai/ha
  Plant response rating, Chickweed: 75
[19]; 125 g ai/ha
  Plant response rating, Chickweed: 75
[20]; 16 g ai/ha
  Plant response rating, Bromegrass, Downy: 5
[20]; 31 g ai/ha
  Plant response rating, Bromegrass, Downy: 10
[20]; 62 g ai/ha
  Plant response rating, Bromegrass, Downy: 20
[20]; 125 g ai/ha
  Plant response rating, Bromegrass, Downy: 25
